Reference: PubChem BioAssay (NCI)
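Cells were grown in 96-well plates and exposed to each compound for 48 hours at five concentrations; endpoints were interpolated linearly between bracketing concentrations, or set to the highest concentration if not reached. At the TGI there is no net growth.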

Experiments:
Test in all cases: NCI-60 cell line screen, 48 h
SF-539 CNS = tested on: SF-539 CNS
MCF7 breast = tested on: MCF7 breast
SN12C renal = tested on: SN12C renal
SF-295 CNS = tested on: SF-295 CNS
NCI/ADR-RES ovarian = tested on: NCI/ADR-RES ovarian
SNB-75 CNS = tested on: SNB-75 CNS
UACC-257 melanoma = tested on: UACC-257 melanoma
IGROV1 ovarian = tested on: IGROV1 ovarian
HS 578T breast = tested on: HS 578T breast
RXF 393 renal = tested on: RXF 393 renal
A549 NSCLC = tested on: A549 NSCLC
HL-60(TB) leukemia = tested on: HL-60(TB) leukemia
ACHN renal = tested on: ACHN renal
TK-10 renal = tested on: TK-10 renal
OVCAR-5 ovarian = tested on: OVCAR-5 ovarian
LOX IMVI melanoma = tested on: LOX IMVI melanoma
NCI-H226 lung = tested on: NCI-H226 lung
SK-MEL-5 melanoma = tested on: SK-MEL-5 melanoma
A498 renal = tested on: A498 renal
SW-620 colon = tested on: SW-620 colon
SR leukemia = tested on: SR leukemia
K-562 leukemia = tested on: K-562 leukemia
KM12 colon = tested on: KM12 colon
OVCAR-4 ovarian = tested on: OVCAR-4 ovarian
SK-MEL-28 melanoma = tested on: SK-MEL-28 melanoma
PC-3 prostate = tested on: PC-3 prostate
EKVX NSCLC = tested on: EKVX NSCLC
HOP-62 NSCLC = tested on: HOP-62 NSCLC
SK-OV-3 ovarian = tested on: SK-OV-3 ovarian
RPMI-8226 leukemia = tested on: RPMI-8226 leukemia
MOLT-4 leukemia = tested on: MOLT-4 leukemia
OVCAR-3 ovarian = tested on: OVCAR-3 ovarian
UO-31 renal = tested on: UO-31 renal
NCI-H23 lung = tested on: NCI-H23 lung
786-0 renal = tested on: 786-0 renal
CCRF-CEM leukemia = tested on: CCRF-CEM leukemia
HOP-92 NSCLC = tested on: HOP-92 NSCLC
HCT-116 colon = tested on: HCT-116 colon
U251 CNS = tested on: U251 CNS
UACC-62 melanoma = tested on: UACC-62 melanoma
MDA-MB-435 = tested on: MDA-MB-435
NCI-H522 lung = tested on: NCI-H522 lung
MALME-3M melanoma = tested on: MALME-3M melanoma
M14 melanoma = tested on: M14 melanoma
HCC-2998 colon = tested on: HCC-2998 colon
MDA-MB-231 breast = tested on: MDA-MB-231 breast
CAKI-1 renal = tested on: CAKI-1 renal
HCT-15 colon = tested on: HCT-15 colon
HT29 colon = tested on: HT29 colon
DU-145 prostate = tested on: DU-145 prostate
BT-549 breast = tested on: BT-549 breast
SK-MEL-2 melanoma = tested on: SK-MEL-2 melanoma
NCI-H460 lung = tested on: NCI-H460 lung
SF-268 CNS = tested on: SF-268 CNS
OVCAR-8 ovarian = tested on: OVCAR-8 ovarian
SNB-19 CNS = tested on: SNB-19 CNS
COLO 205 colon = tested on: COLO 205 colon
T-47D breast = tested on: T-47D breast

Measured: TGI

CCOP(=O)(OCC)/C(C#N)=C/c1cnc[nH]1
> 100 µM: SF-539 CNS | MCF7 breast | SN12C renal | SF-295 CNS | NCI/ADR-RES ovarian | SNB-75 CNS | UACC-257 melanoma | IGROV1 ovarian | HS 578T breast | RXF 393 renal | A549 NSCLC | HL-60(TB) leukemia | ACHN renal | TK-10 renal | OVCAR-5 ovarian | LOX IMVI melanoma | NCI-H226 lung | SK-MEL-5 melanoma | A498 renal | SW-620 colon | SR leukemia | K-562 leukemia | KM12 colon | OVCAR-4 ovarian | SK-MEL-28 melanoma | PC-3 prostate | EKVX NSCLC | HOP-62 NSCLC | SK-OV-3 ovarian | RPMI-8226 leukemia | MOLT-4 leukemia | OVCAR-3 ovarian | UO-31 renal | NCI-H23 lung | 786-0 renal | CCRF-CEM leukemia | HOP-92 NSCLC | HCT-116 colon | U251 CNS | UACC-62 melanoma | MDA-MB-435 | NCI-H522 lung | MALME-3M melanoma | M14 melanoma | HCC-2998 colon | MDA-MB-231 breast | CAKI-1 renal | HCT-15 colon | HT29 colon | DU-145 prostate | BT-549 breast | SK-MEL-2 melanoma | NCI-H460 lung | SF-268 CNS | OVCAR-8 ovarian | SNB-19 CNS | COLO 205 colon

CN1CCC2(CC1)C(=NC1CCCCC1)NC(=S)N2c1ccccc1
88.3 µM: HS 578T breast
> 100 µM: SF-539 CNS | MCF7 breast | SN12C renal | SF-295 CNS | NCI/ADR-RES ovarian | SNB-75 CNS | UACC-257 melanoma | T-47D breast | IGROV1 ovarian | RXF 393 renal | A549 NSCLC | HL-60(TB) leukemia | ACHN renal | TK-10 renal | OVCAR-5 ovarian | LOX IMVI melanoma | NCI-H226 lung | SK-MEL-5 melanoma | A498 renal | SW-620 colon | SR leukemia | K-562 leukemia | KM12 colon | OVCAR-4 ovarian | SK-MEL-28 melanoma | EKVX NSCLC | HOP-62 NSCLC | SK-OV-3 ovarian | RPMI-8226 leukemia | MOLT-4 leukemia | UO-31 renal | NCI-H23 lung | 786-0 renal | CCRF-CEM leukemia | HOP-92 NSCLC | HCT-116 colon | U251 CNS | UACC-62 melanoma | MDA-MB-435 | MALME-3M melanoma | M14 melanoma | HCC-2998 colon | MDA-MB-231 breast | HCT-15 colon | HT29 colon | DU-145 prostate | NCI-H460 lung | SF-268 CNS | OVCAR-8 ovarian | SNB-19 CNS | COLO 205 colon
